Test systems include SF-268; SF-539; CAKI-1; EKVX; Malme-3M; HCT-15; HCC 2998; OVCAR-3; HL-60; OVCAR-4; UACC-257; ACHN; SR; NCI-H23; M14; TK-10; NCI/ADR-RES; MDA-N; MDA-MB-435; MDA-MB-231.
Assay in all cases: growth of human tumour cells (NCI), 48 h

Experimental findings from ChEMBL document CHEMBL1201862, “PubChem BioAssay data set” (2004) are described below.

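Briefly, cells in 96-well plates were exposed to five compound concentrations for 48 h, and endpoints were estimated by linear interpolation. GI50 is the concentration that inhibits growth by half.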 Calls of active or inactive are those of the source. No stated cut-off is given here; in the data, active = GI50 up to about 1.1 µM and inactive = higher.

Consider `C/C(CC(=O)Nc1ccc(NC(=O)C/C(C)=N\NC(N)=O)cc1)=N/NC(N)=O`, for which the GI50 was > 60 µM (inactive) in the test on SF-268; > 100 µM (inactive) in the test on SF-539; > 100 µM (inactive) in the test on CAKI-1; > 74.3 µM (inactive) in the test with EKVX; > 100 µM (inactive) in the test with Malme-3M; above 42.3 µM with HCT-15. Moreover, the GI50 is > 100 µM (inactive) with HCC 2998; 49.5 µM (inactive) in the test with OVCAR-3; > 61.7 µM (inactive) in the test with HL-60; 96.2 µM (inactive) in the test on OVCAR-4; > 100 µM (inactive) in the test with UACC-257; 99.8 µM (inactive) in the test with ACHN. For the same compound, the GI50 in the test on SR was 38.5 µM (inactive); in the test on NCI-H23, 98.4 µM (inactive); in the test with M14 it was 65.3 µM (inactive); in the test with TK-10, > 68.7 µM (inactive).
Turning to `CC1C2=C(CCCC2=O)N(c2ccc(Cl)cc2)C2=C1C(=O)CCC2`, the GI50 in the test with SF-268 was > 100 µM (inactive); in the test with SF-539, > 100 µM (inactive); in the test with CAKI-1, > 100 µM (inactive); with EKVX it was 57.7 µM (inactive); in the test with HCT-15, 70 µM; with HCC 2998 it was > 100 µM (inactive). For the same compound, the GI50 in the test on NCI/ADR-RES is 71 µM (inactive); with OVCAR-3 it was 69.8 µM (inactive); in the test on HL-60, 31.3 µM (inactive); in the test on OVCAR-4 it was 39.1 µM (inactive); with ACHN, 91.2 µM (inactive); with SR it was 39.2 µM (inactive). The GI50 with NCI-H23 is > 100 µM (inactive); in the test on M14 it was > 100 µM (inactive); in the test on TK-10, 86.7 µM (inactive).
On to `Nc1ccc2ncc(Nc3ccc(Cl)c(Cl)c3)nc2c1`, for which the GI50 in the test on SF-268 was 39.7 µM (inactive); with SF-539, 17.3 µM (inactive); in the test on CAKI-1, 23.4 µM (inactive); in the test with EKVX it was 27.2 µM (inactive); in the test with Malme-3M, 23.1 µM (inactive); in the test with HCT-15 it was 34 µM. For the same compound, the GI50 was 17.6 µM (inactive) in the test on HCC 2998; 19.4 µM (inactive) in the test on OVCAR-3; 14.5 µM (inactive) with HL-60; 46 µM (inactive) in the test with OVCAR-4; 19.4 µM (inactive) in the test with UACC-257; 16.9 µM (inactive) with ACHN. Also, the GI50 with SR was 57.7 µM (inactive); in the test on NCI-H23 it was 18.7 µM (inactive); with M14, 19.4 µM (inactive); in the test with TK-10, 70.6 µM (inactive).
As to `CCCCCCCC(=O)N1C2CC3CCC2(CS1(=O)=O)C3(C)C` (stereo not drawn), the GI50 in the test with SF-268 is 35.4 µM (inactive); in the test on SF-539 it was 16.9 µM (inactive); with CAKI-1, 20.2 µM (inactive); in the test with EKVX it was 37.4 µM (inactive); in the test on Malme-3M, 16.7 µM (inactive); in the test on HCT-15 it was 13.1 µM. In addition, the GI50 is 24.7 µM (inactive) in the test with HCC 2998; 26.8 µM (inactive) in the test on MDA-N; > 10 µM (inactive) in the test on OVCAR-3; 31.4 µM (inactive) in the test on MDA-MB-435; 20 µM (inactive) with HL-60; 32.7 µM (inactive) with OVCAR-4. In addition, the GI50 was 24.5 µM (inactive) in the test on UACC-257; 42.1 µM (inactive) with ACHN; 18.6 µM (inactive) in the test with SR; 33.3 µM (inactive) with NCI-H23; 17.5 µM (inactive) in the test with M14; 33.6 µM (inactive) in the test with TK-10.
In the case of `Cc1ccc2nc(N)[nH]c(=O)c2c1Sc1ccncc1`, the GI50 in the test with SF-268 is 10.5 µM (inactive); with SF-539, 4.78 µM (inactive); in the test with CAKI-1, 31.6 µM (inactive); in the test with EKVX, 49.8 µM (inactive); with Malme-3M, > 65.2 µM (inactive); in the test with HCT-15, above 100 µM. For the same compound, the GI50 in the test with HCC 2998 is 1.36 µM (inactive); with OVCAR-3, > 69.2 µM (inactive); with HL-60, 10.9 µM (inactive); in the test on OVCAR-4 it was 78.2 µM (inactive); in the test with UACC-257 it was > 100 µM (inactive); in the test on ACHN, 7.35 µM (inactive). Further, the GI50 was 5.07 µM (inactive) in the test on SR, 60.3 µM (inactive) in the test with NCI-H23, 8.63 µM (inactive) in the test with M14 and > 100 µM (inactive) in the test on TK-10.
With `CC(=O)c1cc(CC2Cc3cc4c(cc3C2=O)CCC4)cc2c1CCC2` (stereo not drawn), the GI50 with SF-268 is 83.9 µM (inactive); in the test on SF-539, 70.5 µM (inactive); in the test on CAKI-1, 90.2 µM (inactive); in the test with EKVX, 37.8 µM (inactive); in the test with Malme-3M, 33 µM (inactive); in the test with HCT-15 it was 44.1 µM. For the same compound, the GI50 in the test with MDA-MB-231 was 29.7 µM (inactive); in the test on HCC 2998 it was 46 µM (inactive); in the test with NCI/ADR-RES, 26.2 µM (inactive); in the test with OVCAR-3, 90.2 µM (inactive); in the test on MDA-MB-435, 32.2 µM (inactive); in the test on HL-60, 8.65 µM (inactive). In addition, the GI50 in the test with OVCAR-4 was 54.8 µM (inactive); with UACC-257, 29.9 µM (inactive); in the test with ACHN it was 92.7 µM (inactive); in the test with SR it was 29.9 µM (inactive); in the test on NCI-H23 it was 15 µM (inactive); in the test on M14, 69.7 µM (inactive). Also, in the test with TK-10, the GI50 was 38.5 µM (inactive).
As to `CC1(c2ccccc2)CC(c2ccccc2)=NO1` (stereo not drawn), the GI50 in the test on SF-268 is > 100 µM (inactive); in the test on SF-539, > 100 µM (inactive); in the test on CAKI-1, > 100 µM (inactive); with EKVX it was > 100 µM (inactive); in the test with Malme-3M it was > 100 µM (inactive); in the test with HCT-15, above 100 µM. Further, the GI50 in the test on HCC 2998, in the test on OVCAR-3, in the test on HL-60, in the test with OVCAR-4, in the test on UACC-257 and in the test with ACHN was > 100 µM (inactive) throughout. Further, the GI50 with SR, with NCI-H23, with M14 and in the test on TK-10 was > 100 µM (inactive) each time.
Take `CC(=O)c1c(O)ccc2c1CC(CC=O)O2` (stereo not drawn): the GI50 is 88.5 µM (inactive) in the test on SF-268; 50 µM (inactive) in the test on SF-539; > 100 µM (inactive) in the test on CAKI-1; > 100 µM (inactive) with Malme-3M; 52.6 µM in the test on HCT-15; > 100 µM (inactive) with HCC 2998. Moreover, the GI50 in the test with OVCAR-3 is 48.5 µM (inactive); with HL-60, > 100 µM (inactive); in the test with OVCAR-4, 98.6 µM (inactive); in the test on UACC-257, > 100 µM (inactive); in the test with ACHN, > 100 µM (inactive); in the test on SR, > 100 µM (inactive). For the same compound, the GI50 was 53.6 µM (inactive) in the test on NCI-H23, 47.5 µM (inactive) with M14 and > 100 µM (inactive) in the test with TK-10.
For the compound `Cc1cccc(C)c1N1C(=O)C(=O)C(c2nc3ccccc3s2)/C(=N/NC(=O)NN)C1=O` (stereo not drawn), the GI50 with SF-268 was > 100 µM (inactive); with SF-539, > 100 µM (inactive); with CAKI-1 it was > 100 µM (inactive); with EKVX, > 100 µM (inactive); in the test with Malme-3M, > 100 µM (inactive); in the test on HCT-15, above 100 µM. Moreover, the GI50 in the test with HCC 2998, in the test with OVCAR-3, in the test with HL-60, in the test on OVCAR-4, in the test on UACC-257 and with ACHN was > 100 µM (inactive) throughout. In addition, the GI50 in the test with SR, with NCI-H23, in the test with M14 and in the test on TK-10 was > 100 µM (inactive) each time.
For `CCCCCCCCCCCCNC(=S)OCCCC`, the GI50 in the test with SF-268 is > 100 µM (inactive); in the test with SF-539, > 100 µM (inactive); with CAKI-1, > 100 µM (inactive); in the test on EKVX, > 100 µM (inactive); in the test with Malme-3M it was > 100 µM (inactive); in the test with HCT-15, above 100 µM. The GI50 in the test with HCC 2998 was > 100 µM (inactive); with HL-60, 16.4 µM (inactive); in the test on OVCAR-4, > 100 µM (inactive); in the test with UACC-257, 35.7 µM (inactive); in the test on ACHN, > 100 µM (inactive); in the test on SR, 30.1 µM (inactive). In addition, the figures for the GI50 in the test on NCI-H23, in the test with M14 and in the test with TK-10 were > 100 µM (inactive), > 100 µM (inactive) and 19.7 µM (inactive), respectively.
On to `CCOC(=O)C(C(=O)OCC)=C1N[C@H](C(=O)OCC)CS1`, for which the GI50 was > 100 µM (inactive) with SF-268; > 100 µM (inactive) in the test with SF-539; > 100 µM (inactive) in the test with CAKI-1; > 100 µM (inactive) in the test with EKVX; > 100 µM (inactive) in the test with Malme-3M; above 100 µM in the test with HCT-15. Also, the GI50 with HCC 2998, in the test with OVCAR-3, with HL-60, with OVCAR-4, in the test on UACC-257 and with ACHN was > 100 µM (inactive) throughout. Besides, the GI50 with SR, in the test on NCI-H23 and in the test with M14 was > 100 µM (inactive) each time.
Consider `N#C/C(=C\c1ccc(O)c(O)c1)C(N)=S` [TYRPHOSTIN 47], for which the GI50 in the test with SF-268 was 66.1 µM (inactive); in the test with SF-539, > 94.4 µM (inactive); in the test on CAKI-1, > 100 µM (inactive); in the test with EKVX it was > 100 µM (inactive); with Malme-3M, > 100 µM (inactive); in the test with HCT-15, 53.5 µM. Further, the GI50 was > 73.5 µM (inactive) in the test on HCC 2998; 38.7 µM (inactive) in the test on OVCAR-3; 10.1 µM (inactive) with HL-60; > 100 µM (inactive) in the test with OVCAR-4; > 54.7 µM (inactive) in the test on UACC-257; > 100 µM (inactive) with ACHN. In addition, the GI50 with SR was 36.1 µM (inactive); in the test with NCI-H23, 64 µM (inactive); in the test on M14 it was > 100 µM (inactive); in the test on TK-10, > 100 µM (inactive).
